Assay results from PubChem BioAssay (NCI).
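Assay format: 96-well plates, 48-hour exposure. Here, GI50 denotes the concentration required for 50% inhibition of growth. TGI denotes the concentration required for complete inhibition of growth.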

What was measured:
Test in all cases: growth of human tumour cells (NCI), 48 h
SK-MEL-2 melanoma = test system: SK-MEL-2 melanoma
UACC-62 melanoma = test system: UACC-62 melanoma
HT29 colon = test system: HT29 colon
HOP-62 NSCLC = test system: HOP-62 NSCLC
SK-MEL-5 melanoma = test system: SK-MEL-5 melanoma
OVCAR-4 ovarian = test system: OVCAR-4 ovarian
NCI/ADR-RES ovarian = test system: NCI/ADR-RES ovarian
HS 578T breast = test system: HS 578T breast
HCC-2998 colon = test system: HCC-2998 colon
A498 renal = test system: A498 renal
TK-10 renal = test system: TK-10 renal
OVCAR-8 ovarian = test system: OVCAR-8 ovarian
CAKI-1 renal = test system: CAKI-1 renal
UACC-257 melanoma = test system: UACC-257 melanoma
HCT-15 colon = test system: HCT-15 colon
SF-268 CNS = test system: SF-268 CNS
UO-31 renal = test system: UO-31 renal
M14 melanoma = test system: M14 melanoma
SK-MEL-28 melanoma = test system: SK-MEL-28 melanoma
T-47D breast = test system: T-47D breast
MOLT-4 leukemia = test system: MOLT-4 leukemia
MCF7 breast = test system: MCF7 breast
BT-549 breast = test system: BT-549 breast
NCI-H226 lung = test system: NCI-H226 lung
OVCAR-5 ovarian = test system: OVCAR-5 ovarian
NCI-H23 lung = test system: NCI-H23 lung
EKVX NSCLC = test system: EKVX NSCLC
HCT-116 colon = test system: HCT-116 colon
LOX IMVI melanoma = test system: LOX IMVI melanoma
SF-539 CNS = test system: SF-539 CNS
SN12C renal = test system: SN12C renal
SK-OV-3 ovarian = test system: SK-OV-3 ovarian
KM12 colon = test system: KM12 colon
SNB-19 CNS = test system: SNB-19 CNS
HOP-92 NSCLC = test system: HOP-92 NSCLC
MDA-MB-231 breast = test system: MDA-MB-231 breast
CCRF-CEM leukemia = test system: CCRF-CEM leukemia
NCI-H460 lung = test system: NCI-H460 lung
COLO 205 colon = test system: COLO 205 colon
K-562 leukemia = test system: K-562 leukemia
PC-3 prostate = test system: PC-3 prostate
RPMI-8226 leukemia = test system: RPMI-8226 leukemia
OVCAR-3 ovarian = test system: OVCAR-3 ovarian
MALME-3M melanoma = test system: MALME-3M melanoma
SF-295 CNS = test system: SF-295 CNS
U251 CNS = test system: U251 CNS
NCI-H522 lung = test system: NCI-H522 lung
RXF 393 renal = test system: RXF 393 renal
DU-145 prostate = test system: DU-145 prostate
A549 NSCLC = test system: A549 NSCLC
SR leukemia = test system: SR leukemia
786-0 renal = test system: 786-0 renal
HL-60(TB) leukemia = test system: HL-60(TB) leukemia
SW-620 colon = test system: SW-620 colon
IGROV1 ovarian = test system: IGROV1 ovarian
ACHN renal = test system: ACHN renal
MDA-MB-435 = test system: MDA-MB-435
SNB-75 CNS = test system: SNB-75 CNS

## O=C(O)CCCn1c(SCc2c(Cl)cccc2Cl)nc2ccsc2c1=O
SK-MEL-2 melanoma
  GI50: 0.386 µM
  TGI: > 100 µM
UACC-62 melanoma
  GI50: 0.185 µM
  TGI: 34.2 µM
HT29 colon
  GI50: 0.448 µM
  TGI: > 100 µM
HOP-62 NSCLC
  GI50: 0.819 µM
  TGI: > 100 µM
SK-MEL-5 melanoma
  GI50: 0.283 µM
  TGI: 57.3 µM
OVCAR-4 ovarian
  GI50: 7.99 µM
  TGI: > 100 µM
NCI/ADR-RES ovarian
  GI50: 0.276 µM
  TGI: > 100 µM
HS 578T breast
  GI50: 0.434 µM
  TGI: > 100 µM
HCC-2998 colon
  GI50: 1.85 µM
  TGI: 23.2 µM
A498 renal
  GI50: 0.311 µM
  TGI: > 100 µM
TK-10 renal
  GI50: 26.2 µM
  TGI: > 100 µM
OVCAR-8 ovarian
  GI50: 0.828 µM
  TGI: > 100 µM
CAKI-1 renal
  GI50: 0.452 µM
  TGI: > 100 µM
UACC-257 melanoma
  GI50: 58.7 µM
  TGI: > 100 µM
HCT-15 colon
  GI50: 0.321 µM
  TGI: > 100 µM
SF-268 CNS
  GI50: 0.83 µM
  TGI: > 100 µM
UO-31 renal
  GI50: 0.478 µM
  TGI: > 100 µM
M14 melanoma
  GI50: 0.366 µM
  TGI: > 100 µM
SK-MEL-28 melanoma
  GI50: 0.698 µM
  TGI: > 100 µM
T-47D breast
  GI50: 0.482 µM
  TGI: > 100 µM
MOLT-4 leukemia
  GI50: 0.44 µM
  TGI: > 100 µM
MCF7 breast
  GI50: 0.263 µM
  TGI: > 100 µM
BT-549 breast
  GI50: 0.459 µM
  TGI: > 100 µM
NCI-H226 lung
  GI50: 0.685 µM
  TGI: > 100 µM
OVCAR-5 ovarian
  GI50: 5.74 µM
  TGI: > 100 µM
NCI-H23 lung
  GI50: 0.587 µM
  TGI: > 100 µM
EKVX NSCLC
  GI50: 4.52 µM
  TGI: > 100 µM
HCT-116 colon
  GI50: 0.432 µM
  TGI: > 100 µM
LOX IMVI melanoma
  GI50: 0.509 µM
  TGI: > 100 µM
SF-539 CNS
  GI50: 0.26 µM
  TGI: 0.943 µM
SN12C renal
  GI50: 0.661 µM
  TGI: > 100 µM
SK-OV-3 ovarian
  GI50: 0.71 µM
  TGI: > 100 µM
KM12 colon
  GI50: 0.321 µM
  TGI: > 100 µM
SNB-19 CNS
  GI50: 0.517 µM
  TGI: > 100 µM
HOP-92 NSCLC
  GI50: 0.236 µM
  TGI: > 100 µM
MDA-MB-231 breast
  GI50: 0.774 µM
  TGI: 50.9 µM
CCRF-CEM leukemia
  GI50: 0.377 µM
  TGI: > 100 µM
NCI-H460 lung
  GI50: 0.419 µM
  TGI: > 100 µM
COLO 205 colon
  GI50: 0.384 µM
  TGI: 10.8 µM
K-562 leukemia
  GI50: 0.272 µM
  TGI: > 100 µM
PC-3 prostate
  GI50: 0.354 µM
  TGI: > 100 µM
RPMI-8226 leukemia
  GI50: 0.489 µM
  TGI: > 100 µM
OVCAR-3 ovarian
  GI50: 0.206 µM
  TGI: 1.62 µM
MALME-3M melanoma
  GI50: 0.336 µM
  TGI: > 100 µM
SF-295 CNS
  GI50: 0.376 µM
  TGI: > 100 µM
U251 CNS
  GI50: 0.529 µM
  TGI: > 100 µM
NCI-H522 lung
  GI50: 0.205 µM
  TGI: 32.2 µM
RXF 393 renal
  GI50: 0.306 µM
  TGI: 2.78 µM
DU-145 prostate
  GI50: 0.479 µM
  TGI: > 100 µM
A549 NSCLC
  GI50: 0.715 µM
  TGI: > 100 µM
SR leukemia
  GI50: 0.316 µM
  TGI: > 100 µM
786-0 renal
  GI50: 0.399 µM
  TGI: 32.9 µM
HL-60(TB) leukemia
  GI50: 0.284 µM
  TGI: 12 µM
SW-620 colon
  GI50: 0.407 µM
  TGI: > 100 µM
IGROV1 ovarian
  GI50: 1.35 µM
  TGI: > 100 µM

## COc1cccc2c1-c1ccccc1C2=O
SK-MEL-2 melanoma
  GI50: 2.49 µM
  TGI: > 100 µM
UACC-62 melanoma
  GI50: 0.467 µM
  TGI: > 100 µM
HT29 colon
  GI50: 3.03 µM
  TGI: 12.5 µM
HOP-62 NSCLC
  GI50: 1.65 µM
  TGI: > 100 µM
SK-MEL-5 melanoma
  GI50: 2.31 µM
  TGI: 13.5 µM
OVCAR-4 ovarian
  GI50: 2.69 µM
  TGI: > 100 µM
HS 578T breast
  GI50: 0.815 µM
  TGI: > 100 µM
HCC-2998 colon
  GI50: 3.35 µM
  TGI: 47.1 µM
TK-10 renal
  GI50: 9.8 µM
  TGI: > 100 µM
OVCAR-8 ovarian
  GI50: 3.33 µM
  TGI: > 100 µM
CAKI-1 renal
  GI50: 0.543 µM
  TGI: > 100 µM
UACC-257 melanoma
  GI50: > 100 µM
  TGI: > 100 µM
HCT-15 colon
  GI50: 2.71 µM
  TGI: > 100 µM
SF-268 CNS
  GI50: 3.17 µM
  TGI: > 100 µM
ACHN renal
  GI50: 0.783 µM
  TGI: > 100 µM
UO-31 renal
  GI50: 4.46 µM
  TGI: > 100 µM
SK-MEL-28 melanoma
  GI50: 3.85 µM
  TGI: > 100 µM
T-47D breast
  GI50: 6.7 µM
  TGI: > 100 µM
MOLT-4 leukemia
  GI50: 4.25 µM
  TGI: > 100 µM
MCF7 breast
  GI50: 1.14 µM
  TGI: > 100 µM
BT-549 breast
  GI50: 1.17 µM
  TGI: > 100 µM
MDA-MB-435
  GI50: 0.225 µM
  TGI: 0.79 µM
NCI-H226 lung
  GI50: 1.19 µM
  TGI: > 100 µM
OVCAR-5 ovarian
  GI50: 5.32 µM
  TGI: > 100 µM
NCI-H23 lung
  GI50: 4.2 µM
  TGI: > 100 µM
EKVX NSCLC
  GI50: 9.49 µM
  TGI: > 100 µM
HCT-116 colon
  GI50: 3.14 µM
  TGI: 17.4 µM
LOX IMVI melanoma
  GI50: 2.24 µM
  TGI: > 100 µM
SF-539 CNS
  GI50: 1.31 µM
  TGI: 5.76 µM
SN12C renal
  GI50: 4.85 µM
  TGI: > 100 µM
SK-OV-3 ovarian
  GI50: 1.03 µM
  TGI: 7.49 µM
KM12 colon
  GI50: 3.42 µM
  TGI: > 100 µM
SNB-19 CNS
  GI50: 2.52 µM
  TGI: > 100 µM
HOP-92 NSCLC
  GI50: 4.6 µM
  TGI: 85.2 µM
MDA-MB-231 breast
  GI50: 3.25 µM
  TGI: 48.3 µM
NCI-H460 lung
  GI50: 0.628 µM
  TGI: 11.5 µM
SNB-75 CNS
  GI50: 0.431 µM
  TGI: > 100 µM
COLO 205 colon
  GI50: 1.91 µM
  TGI: 4.62 µM
K-562 leukemia
  GI50: 0.801 µM
  TGI: > 100 µM
PC-3 prostate
  GI50: 2.22 µM
  TGI: > 100 µM
RPMI-8226 leukemia
  GI50: 3.7 µM
  TGI: > 100 µM
MALME-3M melanoma
  GI50: 6.54 µM
  TGI: > 100 µM
SF-295 CNS
  GI50: 0.352 µM
  TGI: > 100 µM
U251 CNS
  GI50: 2.9 µM
  TGI: > 100 µM
NCI-H522 lung
  GI50: 0.276 µM
  TGI: 4.33 µM
RXF 393 renal
  GI50: 0.329 µM
  TGI: 49.2 µM
DU-145 prostate
  GI50: 2.9 µM
  TGI: > 100 µM
A549 NSCLC
  GI50: 2.65 µM
  TGI: > 100 µM
SR leukemia
  GI50: 3.66 µM
  TGI: > 100 µM
786-0 renal
  GI50: 3.15 µM
  TGI: > 100 µM
HL-60(TB) leukemia
  GI50: 2.19 µM
  TGI: 6.37 µM
SW-620 colon
  GI50: 2.09 µM
  TGI: > 100 µM
IGROV1 ovarian
  GI50: 1.46 µM
  TGI: > 100 µM
